Source: patent publication US7148204B2, “Antisense modulation of bcl-x expression” (Isis Pharmaceuticala, Inc., priority 1998, dated 2006)
In the oligonucleotide strings, read from the 5' end, every base follows the letter of its sugar. An asterisk marks phosphorothioate; unmarked linkages are phosphodiester. Other units and linkages are bracketed, terminal groups are in braces. A string of capitals states the bases alone. e = 2'-O-(2-methoxyethyl) (MOE); [5mC] = 5-methylcytosine; d = 2'-deoxy (DNA)

What was measured:
Assay type in all cases: cell-based, human
[1] = tested on: bcl-xs/bcl-xl mRNA ratio; test: RNase protection assay, bcl-xs/bcl-xl mRNA ratio in A549 cells; details: A549 cells, RPA; for bcl-xs/bcl-xl Fold difference: 200 nM; for bcl-xs/bcl-xl Fold difference / bcl-xs/bcl-xl* (change from the control ratio 17.56): no oligo = 1; for bcl-xs/bcl-xl (%): no oligo 17.56
Excerpt: (§1) The ribonuclease (RNase) protection assay is a sensitive and specific method for quantitating expression levels (Zinn, et al., Cell, 1983, 34:865–79). The method is based on the hybridization of a target RNA to an in vitro transcribed ^32P-labeled anti-sense RNA probe from a DNA template. RNase treatment follows, resulting in degradation of single-stranded RNA and excess probe. The probe and target RNA are resolved by denaturing polyacrylamide gel electrophoresis with the “protected” probe visualized using autoradiography or beta imaging equipment. Template sets can be purchased (PharMingen Inc., San Diego Calif.) which contain a series of biologically relevant templates, each of distinct length and each representing a sequence in a distinct mRNA species. Each template set is capable of detecting up to 11 unique gene messages in a single reaction mix in addition to one or more housekeeping genes, L32 and GAPDH, which serve as internal controls. These template sets allow for multiple determinations to be made from a single sample. Multi-probe RPA can be performed on total RNA preparations derived by standard methods, without further purification of poly-A+ RNA.
(§2) Oligonucleotides were evaluated for their respective effects on bcl-xs and bcl-xl mRNA levels along with total bcl-x mRNA levels, using the RIBOQUANT™ RNase protection kit (Pharmingen, San Diego Calif.). All assays were performed according to manufacturer's protocols. Briefly, multi-probe DNA template sets were used to generate antisense RNA transcripts radiolabeled with […]. The template set used for apoptosis genes was the human hAPO-2 set. These radiolabeled probes were hybridized overnight with typically 10 μg of total cellular RNA. The reaction mixture was then digested with single-strand RNases to generate the protected fragments which were electrophoresed through a 5% acrylamide/urea gel. Protected bands were visualized and quantitated using a PhosphorImager (Molecular Dynamics, Sunnyvale Calif.).
(§3) Human bcl-x has two forms, a long form known as bcl-xl and a short form known as bcl-xs. […] The protein of bcl-xl is similar in size and structure to bcl-2, and could inhibit cell death upon growth factor withdrawal. The protein of bcl-xs is 63 amino acids shorter than bcl-xl. It could inhibit the bcl-2 function, thus promoting programmed cell death (apoptosis). Oligonucleotides were evaluated for their respective effects on bcl-xs and bcl-xl mRNA levels along with total bcl-x mRNA levels, using the RIBOQUANT™ RNase protection kit (Pharmingen, San Diego Calif.). All assays were performed according to manufacturer's protocols.
(§4) These oligonucleotides were tested for their inhibitory effects on bcl-xl and bcl-xs mRNA levels in A549 cells, as detected by RPA analysis. Oligonucleotide concentration was 200 nM.

[2] = tested on: bcl-xl mRNA; test: RNase protection assay, bcl-xl mRNA in A549 cells; details: RPA
Excerpt: as §1, §2, §3, §4

[3] = tested on: bcl-xs mRNA; test: RNase protection assay, bcl-xs mRNA in A549 cells; design: concentration or dose not given beside the values; details: RPA
Excerpt: as §1, §2, §3

[4] = tested on: total bcl-x mRNA; test: RNase protection assay, total bcl-x mRNA in A549 cells; design: % CONTROL total bcl-x: concentration or dose not given beside the values; details: RPA
Excerpt: as §1, §2, §3

[5] = tested on: bcl-xs/bcl-xl transcript ratio; test: PNA analogs, bcl-x splicing in electroporated HeLa cells; details: electroporation
Excerpt: A peptide-nucleic acid (PNA) oligonucleotide having the ISIS 22783 sequence (SEQ ID NO: 33) was synthesized as described in Example 4 hereinabove. The oligonucleotide (ISIS 32262) was uniformly modified with a PNA backbone throughout. A 5-base mismatch compound (ISIS 32263, SEQ ID NO: 52) was also synthesized as a full PNA. HeLa cells were transfected with these compounds by electroporation with a 200V pulse using a BTX Electro Cell Manipulator 600 (Genetronics, San Diego Calif.) and RNA was isolated 24 hours later.

106255 (antisense ATTCAGGTAAGTGGCCATCC; all 2'-MOE, all phosphorothioate, methylation of C not given here) [compound 106255]
bcl-xs/bcl-xl Fold difference [1]: 17 fold | % CONTROL bcl-xl ([2]; 200 nM): 64%

23175 (antisense eT*eG*eT*eA*eG*e[5mC]*e[5mC]*e[5mC]*eA*eG*e[5mC]*eA*eG*eA*eA*e[5mC]*e[5mC]*eA*e[5mC]*eG) [compound 23175]
bcl-xs/bcl-xl (%) [1]: 11.44% | bcl-xs/bcl-xl* (change from the control ratio 17.56) [1]: 0.65 | % CONTROL bcl-xs [3]: 52% | % CONTROL bcl-xl [2]: 82% | % CONTROL total bcl-x [4]: 78%

ISIS 32263: 5-base mismatch compound, SEQ ID NO: 52, full PNA (CTGGTTACACGACTCCAGGT; all peptide nucleic acid (PNA)) [reference compound]
Ratio (approx.) of bcl-xs/bcl-xl ([5]; 2 μM): ~0.75 | Ratio (approx.) of bcl-xs/bcl-xl ([5]; 5 μM): ~0.75 | Ratio (approx.) of bcl-xs/bcl-xl ([5]; 10 μM): ~1.0 | Ratio (approx.) of bcl-xs/bcl-xl ([5]; 15 μM): ~0.75 | Ratio (approx.) of bcl-xs/bcl-xl ([5]; 25 μM): ~1.0 | Ratio (approx.) of bcl-xs/bcl-xl ([5]; RNA 24 hours later, 1 μM): ~1.5

106260 (antisense GTGGCCATCCAAGCTGCGAT; all 2'-MOE, all phosphorothioate, methylation of C not given here) [compound 106260]
bcl-xs/bcl-xl Fold difference [1]: 12 fold | % CONTROL bcl-xl ([2]; 200 nM): 66%

106258 (antisense GTAAGTGGCCATCCAAGCTG; all 2'-MOE, all phosphorothioate, methylation of C not given here) [compound 106258]
bcl-xs/bcl-xl Fold difference [1]: 21 fold | % CONTROL bcl-xl ([2]; 200 nM): 66%

106253 (antisense GGTCATTCAGGTAAGTGGCC; all 2'-MOE, all phosphorothioate, methylation of C not given here) [compound 106253]
bcl-xs/bcl-xl Fold difference [1]: 19 fold | % CONTROL bcl-xl ([2]; 200 nM): 48%

ISIS 32262: PNA oligonucleotide having the ISIS 22783 sequence (SEQ ID NO: 33), PNA backbone throughout (CTGGATCCAAGGCTCTAGGT; all peptide nucleic acid (PNA))
Ratio (approx.) of bcl-xs/bcl-xl ([5]; 2 μM): ~2.0 | Ratio (approx.) of bcl-xs/bcl-xl ([5]; 5 μM): ~3.5 | Ratio (approx.) of bcl-xs/bcl-xl ([5]; 10 μM): ~6.5 | Ratio (approx.) of bcl-xs/bcl-xl ([5]; 15 μM): ~7.75 | Ratio (approx.) of bcl-xs/bcl-xl ([5]; 25 μM): ~11.5 | Ratio (approx.) of bcl-xs/bcl-xl ([5]; RNA 24 hours later, 1 μM): ~1.5

106256 (antisense TCAGGTAAGTGGCCATCCAA; all 2'-MOE, all phosphorothioate, methylation of C not given here) [compound 106256]
bcl-xs/bcl-xl Fold difference [1]: 15 fold | % CONTROL bcl-xl ([2]; 200 nM): 82%

22784 (antisense e[5mC]*e[5mC]*eA*eG*e[5mC]*e[5mC]*eG*e[5mC]*e[5mC]*eG*eT*eT*e[5mC]*eT*e[5mC]*e[5mC]*eT*eG*eG*eA) [compound 22784]
bcl-xs/bcl-xl (%) [1]: 48.63% | bcl-xs/bcl-xl* (change from the control ratio 17.56) [1]: 2.77 | % CONTROL bcl-xs [3]: 204% | % CONTROL bcl-xl [2]: 72% | % CONTROL total bcl-x [4]: 92%

22782 (antisense e[5mC]*eA*eA*eA*eA*eG*eT*eA*eT*e[5mC]*e[5mC]*e[5mC]*eA*eG*e[5mC]*e[5mC]*eG*e[5mC]*e[5mC]*eG) [compound 22782]
bcl-xs/bcl-xl (%) [1]: 15.72% | bcl-xs/bcl-xl* (change from the control ratio 17.56) [1]: 0.89 | % CONTROL bcl-xs [3]: 64% | % CONTROL bcl-xl [2]: 76% | % CONTROL total bcl-x [4]: 75%

106249 (antisense CTCTAGGTGGTCATTCAGGT; all 2'-MOE, all phosphorothioate, methylation of C not given here) [compound 106249]
bcl-xs/bcl-xl Fold difference [1]: 23 fold | % CONTROL bcl-xl ([2]; 200 nM): 47%

23174 (antisense e[5mC]*e[5mC]*eG*eG*e[5mC]*e[5mC]*eA*e[5mC]*eA*eG*eT*e[5mC]*eA*eT*eG*e[5mC]*e[5mC]*e[5mC]*eG*eT) [compound 23174]
bcl-xs/bcl-xl (%) [1]: 14.93% | bcl-xs/bcl-xl* (change from the control ratio 17.56) [1]: 0.85 | % CONTROL bcl-xs [3]: 56% | % CONTROL bcl-xl [2]: 67% | % CONTROL total bcl-x [4]: 66%

106250 (antisense CTAGGTGGTCATTCAGGTAA; all 2'-MOE, all phosphorothioate, methylation of C not given here) [compound 106250]
bcl-xs/bcl-xl Fold difference [1]: 21 fold | % CONTROL bcl-xl ([2]; 200 nM): 40%

106259 (antisense AAGTGGCCATCCAAGCTGCG; all 2'-MOE, all phosphorothioate, methylation of C not given here) [compound 106259]
bcl-xs/bcl-xl Fold difference [1]: 15 fold | % CONTROL bcl-xl ([2]; 200 nM): 96%

105751 (antisense TGGTTCTTACCCAGCCGCCG; all 2'-MOE, all phosphorothioate, methylation of C not given here) [compound 105751]
bcl-xs/bcl-xl Fold difference [1]: 45 fold | % CONTROL bcl-xl ([2]; 200 nM): 34%

106251 (antisense AGGTGGTCATTCAGGTAAGT; all 2'-MOE, all phosphorothioate, methylation of C not given here) [compound 106251]
bcl-xs/bcl-xl Fold difference [1]: 25 fold | % CONTROL bcl-xl ([2]; 200 nM): 57%

106252 (antisense GTGGTCATTCAGGTAAGTGG; all 2'-MOE, all phosphorothioate, methylation of C not given here) [compound 106252]
bcl-xs/bcl-xl Fold difference [1]: 23 fold | % CONTROL bcl-xl ([2]; 200 nM): 72%

16968 (antisense e[5mC]*eT*e[5mC]*e[5mC]*eG*dA*dT*dG*dT*dC*dC*dC*dC*dT*dC*eA*eA*eA*eG*eT) [compound 16968]
bcl-xs/bcl-xl (%) [1]: 20.18% | bcl-xs/bcl-xl* (change from the control ratio 17.56) [1]: 1.15 | % CONTROL bcl-xs [3]: 20% | % CONTROL bcl-xl [2]: 15% | % CONTROL total bcl-x [4]: 21%

22785 (antisense eG*e[5mC]*e[5mC]*eG*e[5mC]*e[5mC]*eG*eT*eT*e[5mC]*eT*e[5mC]*e[5mC]*eT*eG*eG*eA*eT*e[5mC]*e[5mC]) [compound 22785]
bcl-xs/bcl-xl (%) [1]: 80.14% | bcl-xs/bcl-xl* (change from the control ratio 17.56) [1]: 4.56 | % CONTROL bcl-xs [3]: 248% | % CONTROL bcl-xl [2]: 53% | % CONTROL total bcl-x [4]: 83%

106254 (antisense TCATTCAGGTAAGTGGCCAT; all 2'-MOE, all phosphorothioate, methylation of C not given here) [compound 106254]
bcl-xs/bcl-xl Fold difference [1]: 13 fold | % CONTROL bcl-xl ([2]; 200 nM): 80%

106257 (antisense AGGTAAGTGGCCATCCAAGC; all 2'-MOE, all phosphorothioate, methylation of C not given here) [compound 106257]
bcl-xs/bcl-xl Fold difference [1]: 13 fold | % CONTROL bcl-xl ([2]; 200 nM): 78%

26080 (antisense CTGGTTACACGACTCCAGGT; all 2'-MOE, all phosphorothioate, methylation of C not given here) [compound 26080]
bcl-xs/bcl-xl Fold difference [1]: 2 fold | % CONTROL bcl-xl ([2]; 200 nM): 77%

TGGTTCTTACCCAGCCGCCG (all 2'-MOE, all phosphorothioate, methylation of C not given here) [ISIS 105751]
bcl-xs/bcl-xl Fold difference [1]: 45 fold

26066 (antisense ATCCAAGGCTCTAGGTGGTC; all 2'-MOE, all phosphorothioate, methylation of C not given here) [compound 26066]
bcl-xs/bcl-xl Fold difference [1]: 37 fold | % CONTROL bcl-xl ([2]; 200 nM): 24%
